Measurements taken from patent US11384078B2, “5,6-fused-bicyclic compounds and compositions for the treatment of parasitic diseases” (NOVARTIS AG, priority 2017, dated 2022).

Legend:
Type in all cases: cell-based
[1] = system: Leishmania donovani axenic amastigote; assay: In vitro assay for growth inhibition of Leishmania donovani axenic amastigote (Cell TiterGlo luminescence); conditions: Leishmania donovani, L. donovani axenic amastigotes in vitro; read-out: L. donovani amastigotes EC50
Method in brief: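 Axenic L. donovani amastigotes (9600/well) grown at 37 °C, 5% CO2 in supplemented RPMI 1640, pH 5.5, with compound added from DMSO. After two days, viability read by CellTiter-Glo luminescence against DMSO and control-compound wells.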

[2] = system: Trypanosoma cruzi amastigotes cultured in 3T3 fibroblast cells; assay: Assay for growth inhibition of kinetoplastid parasite Trypanosoma cruzi (beta-galactosidase Tulahuen strain, CPRG readout); conditions: Trypanosoma cruzi, Fibroblast, T. cruzi amastigotes in 3T3 fibroblast cells; read-out: Buckner infectious T. cruzi EC50
Method in brief: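 3T3 fibroblasts (1,000 cells/well) plated overnight, treated with compound in DMSO, then infected with 10,000 Lac-Z-expressing Tulahuen trypomastigotes. After 6 days, 0.6 mM CPRG with 0.6% NP-40 added for 2 h at room temperature; absorbance gives relative intracellular amastigote numbers. Benznidazole and nifurtimox serve as positive controls.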

[3] = system: L. donovani HU3 strain in mouse peritoneal macrophages; assay: Assay for inhibition of parasitemia of Leishmania donovani in mouse macrophages (SYBR Green nuclei count, high-content imaging); conditions: Leishmania donovani, Peritoneal macrophage, L. donovani in mouse peritoneal macrophages; read-out: L. donovani in Mouse Macrophages EC50
Method in brief: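 Peritoneal macrophages from uninfected BALB/c mice were infected for 24 h with spleen-derived L. donovani HU3 (4×10^5 parasites per 2×10^4 macrophages), then cultured with compound for 5 days at 37° C, 5% CO2. After fixation and permeabilization, parasite nuclei were stained with SYBR Green and counted by high-content imaging.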

[4] = system: Trypanosoma brucei brucei (Lister 427) strain; assay: Assay for growth inhibition against Trypanosoma brucei brucei (Cell TiterGlo ATP luminescence); conditions: Trypanosoma brucei, T. brucei brucei (Lister 427); read-out: T. Brucei (HAT) EC50
Method in brief: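 T. b. brucei Lister 427 grown in HMI-9 with 10% FBS and 10% serum plus, seeded at 10,000 parasites/mL with 10-point threefold compound dilutions in duplicate, 37 °C for 2 days. Viability read as ATP luminescence 30 min after Cell TiterGlo; IC50 versus untreated controls.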

SMILES	EC50 [1]	EC50 [2]	EC50 [3]	EC50 [4]
O=C(Nc1ccc(F)c(-n2cc3cc(N4CCOCC4)cnc3n2)c1)N1CC[C@@H](F)C1 [Compound 135, (3R)-3-fluoro-N-{4-fluoro-3-[5-(morpholin-4-yl)-2H-pyrazolo[3,4-b]pyridin-2-yl]phenyl}pyrrolidine-1-carboxamide]	4.6 nM	6.6 nM	8.6 nM	< 23 nM
CC(C)OC(=O)Nc1cnc2nn(-c3cc(NC(=O)N4CC[C@@H](F)C4)ccc3F)cc2c1 [Compound 136]	30 nM	170 nM	19 nM	< 23 nM
O=C(Nc1ccc(F)c(-n2cc3cc(N4CCOCC4)cnc3n2)c1)N1CCC1 [Compound 137, N-{4-fluoro-3-[5-(morpholin-4-yl)-2H-pyrazolo[3,4-b]pyridin-2-yl]phenyl}azetidine-1-carboxamide]	8.8 nM	5.1 nM	6 nM	< 23 nM
CC(C)OC(=O)Nc1cnc2nn(-c3cc(NC(=O)N4CCC4)ccc3F)cc2c1 [Compound 138, propan-2-yl N-(2-{5-[(azetidine-1-carbonyl)amino]-2-fluorophenyl}-2H-pyrazolo[3,4-b]pyridin-5-yl)carbamate]	11 nM	47 nM	5.7 nM	< 23 nM
CNc1cnc2nn(-c3cc(NC(=O)c4ccco4)ccc3F)cc2c1 [Compound 139, N-{4-fluoro-3-[5-(methylamino)-2H-pyrazolo[3,4-b]pyridin-2-yl]phenyl}furan-2-carboxamide]	740 nM	3000 nM	320 nM	< 23 nM
CN(C)c1cnc2nn(-c3cc(NC(=O)c4ccco4)ccc3F)cc2c1 [Compound 140, N-{3-[5-(dimethylamino)-2H-pyrazolo[3,4-b]pyridin-2-yl]-4-fluorophenyl}furan-2-carboxamide]	100 nM	23 nM	41 nM	< 23 nM
O=C(Nc1ccc(F)c(-n2cc3cc(N4CCCC4)cnc3n2)c1)c1ccco1 [Compound 141, N-{4-fluoro-3-[5-(pyrrolidin-1-yl)-2H-pyrazolo[3,4-b]pyridin-2-yl]phenyl}furan-2-carboxamide]	80 nM	22 nM	12 nM	< 23 nM
CNC(=O)Nc1ccc(F)c(-n2cc3cc(NC)cnc3n2)c1 [Compound 142, 1-{4-fluoro-3-[5-(methylamino)-2H-pyrazolo[3,4-b]pyridin-2-yl]phenyl}-3-methylurea]	7800 nM	11000 nM	9200 nM	4300 nM
O=C(Nc1ccc(F)c(-n2cc3cc(N4CCC4)cnc3n2)c1)N1CC(F)(F)C1 [Compound 144, N-{3-[5-(azetidin-1-yl)-2H-pyrazolo[3,4-b]pyridin-2-yl]-4-fluorophenyl}-3,3-difluoroazetidine-1-carboxamide]	23 nM	17 nM	23 nM	< 23 nM
O=C(Nc1ccc(F)c(-n2cc3cc(N4CCOCC4)cnc3n2)c1)N1CC(F)(F)C1 [Compound 145, 3,3-difluoro-N-{4-fluoro-3-[5-(morpholin-4-yl)-2H-pyrazolo[3,4-b]pyridin-2-yl]phenyl}azetidine-1-carboxamide]	5.4 nM	18 nM	4.7 nM	< 23 nM
CC(C)OC(=O)Nc1cnc2nn(-c3cc(NC(=O)N4CC(F)(F)C4)ccc3F)cc2c1 [Compound 146, propan-2-yl N-(2-{5-[(3,3-difluoroazetidine-1-carbonyl)amino]-2-fluorophenyl}-2H-pyrazolo[3,4-b]pyridin-5-yl)carbamate]	26 nM	85 nM	12 nM	< 23 nM
O=C(Nc1ccc(F)c(-n2cc3cc(N4CCC4)cnc3n2)c1)N1CC(F)C1 [Compound 147, N-{3-[5-(azetidin-1-yl)-2H-pyrazolo[3,4-b]pyridin-2-yl]-4-fluorophenyl}-3-fluoroazetidine-1-carboxamide]	6.1 nM	4.8 nM	26 nM	< 23 nM
O=C(Nc1ccc(F)c(-n2cc3cc(C4CCOCC4)cnc3n2)c1)N1CC(F)C1 [Compound 148, 3-fluoro-N-{4-fluoro-3-[5-(oxan-4-yl)-2H-pyrazolo[3,4-b]pyridin-2-yl]phenyl}azetidine-1-carboxamide]	8.1 nM	14 nM	12 nM	< 23 nM
O=C(Nc1ccc(F)c(-n2cc3cc(N4CCC4)cnc3n2)c1)N1CC[C@@H](F)C1 [Compound 149]	11 nM	5.4 nM	7.9 nM	< 23 nM
O=C(Nc1ccc(F)c(-n2cc3cc(C4CCOCC4)cnc3n2)c1)N1CC[C@@H](F)C1 [Compound 150, (R)-3-fluoro-N-(4-fluoro-3-(5-(tetrahydro-2H-pyran-4-yl)-2H-pyrazolo[3,4-b]pyridin-2-yl)phenyl)pyrrolidine-1-carboxamide]	14 nM	21 nM	25 nM	< 23 nM
O=C(Nc1ccc(F)c(-n2cc3cc(N4CCC4)cnc3n2)c1)c1ccco1 [Compound 151, N-{3-[5-(azetidin-1-yl)-2H-pyrazolo[3,4-b]pyridin-2-yl]-4-fluorophenyl}furan-2-carboxamide]	60 nM	12 nM	13 nM	< 23 nM
O=C(Nc1ccc(F)c(-n2cc3cc(CC(F)(F)F)cnc3n2)c1)N1CC(F)C1 [Compound 152, 3-fluoro-N-(4-fluoro-3-(5-(2,2,2-trifluoroethyl)-2H-pyrazolo[3,4-b]pyridin-2-yl)phenyl)azetidine-1-carboxamide]	3.7 nM	1.7 nM	5.3 nM	< 23 nM
CNc1cnc2nn(-c3cc(NC(=O)c4oc(C)nc4C)ccc3F)cc2c1 [Compound 153, N-{4-fluoro-3-[5-(methylamino)-2H-pyrazolo[3,4-b]pyridin-2-yl]phenyl}-2,4-dimethyl-1,3-oxazole-5-carboxamide]	210 nM	150 nM	27000 nM	500 nM
Cc1nc(C)c(C(=O)Nc2ccc(F)c(-n3cc4cc(N(C)C)cnc4n3)c2)o1 [Compound 154, N-{3-[5-(dimethylamino)-2H-pyrazolo[3,4-b]pyridin-2-yl]-4-fluorophenyl}-2,4-dimethyl-1,3-oxazole-5-carboxamide]	53 nM	23 nM	78 nM	37 nM
Cc1nc(C)c(C(=O)Nc2ccc(F)c(-n3cc4cc(N5CCC5)cnc4n3)c2)o1 [Compound 155, N-{3-[5-(azetidin-1-yl)-2H-pyrazolo[3,4-b]pyridin-2-yl]-4-fluorophenyl}-2,4-dimethyl-1,3-oxazole-5-carboxamide]	53 nM	18 nM	22 nM	< 23 nM
Cc1nc(C)c(C(=O)Nc2ccc(F)c(-n3cc4cc(N5CCCC5)cnc4n3)c2)o1 [Compound 157, N-{4-fluoro-3-[5-(pyrrolidin-1-yl)-2H-pyrazolo[3,4-b]pyridin-2-yl]phenyl}-2,4-dimethyl-1,3-oxazole-5-carboxamide]	25 nM	13 nM	18 nM	< 23 nM
Cc1nc(C)c(C(=O)Nc2ccc(F)c(-n3cc4cc(N5CCOCC5)cnc4n3)c2)o1 [Compound 158, N-{4-fluoro-3-[5-(morpholin-4-yl)-2H-pyrazolo[3,4-b]pyridin-2-yl]phenyl}-2,4-dimethyl-1,3-oxazole-5-carboxamide]	16 nM	15 nM	16 nM	< 23 nM
Cc1nc(C)c(C(=O)Nc2ccc(F)c(-n3cc4cc(NC(=O)OC(C)C)cnc4n3)c2)o1 [Compound 159, propan-2-yl N-{2-[5-(dimethyl-1,3-oxazole-5-amido)-2-fluorophenyl}-2H-pyrazolo[3,4-b]pyridin-5-yl}carbamate]	13 nM	37 nM	17 nM	< 23 nM
O=C(Nc1ccc(F)c(-n2cc3cc(C4CCOCC4)cnc3n2)c1)N1CCC1 [Compound 160, N-{4-fluoro-3-[5-(oxan-4-yl)-2H-pyrazolo[3,4-b]pyridin-2-yl]phenyl}azetidine-1-carboxamide]	4.3 nM	5.1 nM	9.8 nM	< 23 nM
O=C(Nc1ccc(F)c(-n2cc3cc(N4CCCC4)cnc3n2)c1)N1CC(F)(F)C1 [Compound 161, 3,3-difluoro-N-{4-fluoro-3-[5-(pyrrolidin-1-yl)-2H-pyrazolo[3,4-b]pyridin-2-yl]phenyl}azetidine-1-carboxamide]	7.7 nM	9.8 nM	7.3 nM	< 23 nM
O=C(Nc1ccc(F)c(-n2cc3cc(CC(F)(F)F)cnc3n2)c1)N1CC[C@@H](F)C1 [Compound 162, (3R)-3-fluoro-N-{4-fluoro-3-[5-(2,2,2-trifluoroethyl)-2H-pyrazolo[3,4-b]pyridin-2-yl]phenyl}pyrrolidine-1-carboxamide]	7 nM	1.8 nM	4.5 nM	< 23 nM
